{
  "source": "patent US10517964B2",
  "about": "“Optical imaging probes, optical imaging systems, methods of optical imaging, and methods of using optical imaging probes” (priority 2011, dated 2019)",
  "key": {"C6-fluc tumors": {"system": "C6-fluc tumors", "assay": "in vivo radioactive OI and microPET of mice bearing C6-fluc glioma", "method": "[^18F]FDG has been widely used for imaging tumor metabolism^2,13,14, and Na^18F can accumulate in the bone^14. In this study, a group of mice (n=3) were implanted with firefly luciferase (fluc) transfected rat C6 glioma (C6-fluc). A day prior to the radioactive imaging, the mice were given with luciferin and bioluminescence OI was performed to verify the presence of tumor (FIG. 1.3a). Then [^18F]FDG was injected to the mice bearing C6-fluc glioma and imaged sequentially with IVIS Spectrum (FIG. 1.3b) and microPET (FIG. 1.3c). […] High imaging signals from bladder and brain were also observed by both modalities. But heart was hardly visible in the radioactive OI because it localizes deep inside of the mice body. After we sacrificed and open the thorax of the mice, the heart could be easily identified (FIG. 1.3d, yellow arrow). To further characterize the distribution of [^18F]FDG using radioactive OI, tumors and other normal organs and tissues were removed from the mice sacrificed and subjected to IVIS Spectrum imaging.\nQuantitative analysis of both radioactive OI and microPET images was performed. The OI intensities in the tumor and the normal tissue as a function of time for [^18F]FDG was depicted in FIG. 1.3f, while the radioactivity accumulation in tumor and muscle over time was shown in FIG. 1.3g. […] Finally, regression analysis was performed for the tumor uptakes obtained from two imaging modalities, in order to further evaluate the quantitative analysis data obtained from radioactive OI. Good correlation was seen between the radioactive OI signal intensities and microPET images derived tumor uptakes (FIG. 1.3h, r^2 over 0.90 for the analyses). […]\nRadioactive optical imaging: In vivo radioactive OI was also performed with an IVIS Spectrum system. […] Images were acquired and analyzed using Living Image 3.0 software (Caliper life sciences, Hopkinton, Mass.). Quantification of Radioactive OI images was corrected in accordance with radionuclides' respective physical decay properties. […]"}, "C6 glioma tumor": {"system": "C6 glioma tumor", "assay": "Cerenkov luminescence imaging with 6 mm fiber optic bundle in mice bearing C6 glioma", "assay_type": "in vivo", "conditions": "n=4", "source_text": "Typical optical endoscopy imaging system includes an endoscope (usually made out of optical fibers and/or optical lenses such as grin/rod lenses), a white light source, and a CCD camera that is connected to the computer monitor. […] The subject “S” was placed […] the field of view (FOV) of the imaging system. The input end of the OF was placed close to the subject “S”. The output end of the “OF” faced the CCD camera such that the image transmitted by the output end was imaged on to the CCD camera using a relay lens system. The optical signal was normalized to photons per second per centimeter square per steradian (p/s/cm^2/sr). Identical settings were used for both in vitro and living mouse experiments.\n^18F-FDG was produced by the Radiochemistry Facility at Stanford University using standard procedures. […] A CRC-15R PET dose calibrator (Capintec Inc., Ramseb, N.J.) was used for all radioactivity measurements. […]\nTo further characterize the distribution of ^18F-FDG, tumors and other organs were removed from the sacrificed mice (n=4) and subjected to fiber optic imaging as mentioned above. Inset figure on top right corner of each organ in FIG. 3.6(a) represents average Cerenkov radiance detected by a 6 mm fiber optic bundle. FIG. 3.6(b) represents biodistribution of ^18F-FDG in various tissues at one hour post injection in mice as measured using optical signals from radionuclides. […]"}, "primary bladder tumor": {"system": "primary bladder tumor", "conditions": "primary bladder tumor in humans; cited from earlier work"}},
  "data": [
    {"substance": "2-deoxy-2-[^18F]fluoro-D-glucose [[^18F]FDG]", "values": [
      {"measurement": "tumor uptake over time", "setting": "C6-fluc tumors; from 0.5-2 h", "value": "increased over time"},
      {"measurement": "tumor localization", "setting": "C6-fluc tumors; radioactive OI and microPET, 0.5-2 h p.i.", "value": "preferentially localized and was retained in C6-fluc tumors"},
      {"measurement": "ex vivo distribution in tumors and normal organs", "setting": "C6-fluc tumors; radioactive OI of removed tissues, 2.1 h p.i.", "value": "High activity was mainly observed from the tumor and heart tissue samples"},
      {"measurement": "in vivo tracer uptake by fiber bundle signal", "setting": "C6 glioma tumor; 900 μCi i.v., 90 minutes post-injection", "value": "Relatively high signals from the subcutaneous tumor and brain"},
      {"measurement": "ex vivo tissue distribution by fiber bundle signal", "setting": "C6 glioma tumor; one hour post injection", "value": "High signal was mainly observed from the tumor, heart, brain, and kidney tissue samples"},
      {"measurement": "standard uptake value (SUV)", "setting": "primary bladder tumor", "value": "~4.5"}
    ]}
  ]
}
